# US20180327367A1, “MACROCYCLIC BROAD SPECTRUM ANTIBIOTICS” (priority 2015, published 2018)
# Read-outs that look alike come from different tables or passages of the source.
# Key:
# [1] = test system: Methicillin Resistant Staphylococcus aureus strain USA 300, NRS384; test: Minimum inhibitory concentration, broth micro-dilution (CLSI), S. aureus; type: cell-based; conditions: Staphylococcus aureus, MRSA / NRS 384 / USA300, 22 h, 35° C., 22 hours
# Method in brief: (§1)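 CLSI broth microdilution in cation-adjusted Mueller Hinton Broth with 0.002% Tween-80; inoculum final OD600 0.0005, 22 hours at 35° C. Ten 2-fold dilutions starting at 4 μg/mL (protocol 2) or 0.5 μg/mL (protocol 3).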
# [2] = test system: Escherichia coli MC4100 harboring the IMP4213 (E. coli IMP); test: microbe, parasite or virus in culture; type: cell-based; conditions: Escherichia coli, 22 h, read-out: MIC (μg/mL) E. coli IMP, E. coli MC4100 IMP4213, increased outer-membrane permeability; 35° C., 22 hours
# Method in brief: as §1
# [3] = test system: Escherichia coli ATCC 25922; test: Minimum inhibitory concentration, broth micro-dilution (CLSI), E. coli; type: cell-based; conditions: Escherichia coli, ATCC25922, 22 h, 35° C., 22 hours
# [4] = target: T1, SpsB (Staphylococcus aureus signal peptidase) (Staphylococcus aureus, UniProt P0A070); test: cell-based; type: biochemical; conditions: SpsB IC50, whole-cell S. aureus (USA300 background, overexpressing SpsB) as SpsB source; fluorogenic peptide substrate, kinetic read 30 min
# T1 construct: This assay uses a suspension of Staphylococcus aureus cells as a source of SpsB instead of recombinant SpsB protein; endogenous in cells; host or cells: S. aureus, USA300 background, overexpressing SpsB (whole-cell suspension from frozen pellets)
# Method in brief: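 Whole S. aureus cells (USA300, overexpressing SpsB) in PBS with MgCl2, CaCl2 and 0.1% Tween-80 served as enzyme source, mixed with 20 μM stock of (Dabcyl)βAla-KPAKAAE(Edans) substrate before use. Fluorescence (ex 340/em 490 nm) read kinetically over 30 min. IC50 from reaction rate versus 11-point inhibitor concentration.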
# [5] = MRSA USA 300 NRS384, read-out: MIC (μg/mL) S. aureus
# [6] = E. coli ATCC 25922, read-out: MIC (μg/mL) E. coli
# [7] = read-out: MIC (μg/mL) S. aureus, MRSA USA 300 NRS384
# [8] = read-out: MIC (μg/mL) E. coli, E. coli ATCC 25922
# T1 sequence (P0A070 whole entry): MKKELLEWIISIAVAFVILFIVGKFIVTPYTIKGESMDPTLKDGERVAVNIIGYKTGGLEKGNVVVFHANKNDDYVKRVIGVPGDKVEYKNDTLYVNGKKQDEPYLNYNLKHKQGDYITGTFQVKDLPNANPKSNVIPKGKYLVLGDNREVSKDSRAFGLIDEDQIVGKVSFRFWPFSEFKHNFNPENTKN
SMILES,"MIC [1, 5] [µg/mL]",MIC [2] [µg/mL],"MIC [3, 6] [µg/mL]",IC50 [4] [nM],"MIC [1, 7] [µg/mL]","MIC [3, 8] [µg/mL]"
CCCCCCCCCCCCCC(=O)N[C@@H](CN)C(=O)N(C)[C@@H]1C(=O)N[C@@H](C)C(=O)N[C@H](C(=O)N[C@@H](C)C#N)Cc2ccc(OCCN)c(c2)-c2cc1ccc2OCCN [Compound 342],0.19,0.063,0.5,1.3,,
CCCCCCCCCCCCCC(=O)N[C@@H](CN)C(=O)N(C)[C@@H]1C(=O)N[C@@H](C)C(=O)N[C@H](C(=O)NCC#N)Cc2ccc(OCCN)c(c2)-c2cc1ccc2OCCN [Compound 343],0.094,0.063,0.25,0.73,,
CCCCCCCCc1ccc(C(=O)N[C@@H](CN)C(=O)N(C)[C@@H]2C(=O)N[C@@H](C)C(=O)N[C@H](C(=O)NCC#N)Cc3ccc(OCCN)c(c3)-c3cc2ccc3OCCN)cc1 [Compound 344],0.094,0.036,0.38,1,,
CCCCCCCCS(=O)(=O)N[C@@H](CO)C(=O)N(C)[C@@H]1C(=O)N[C@@H](C)C(=O)N[C@H](C(=O)NCC#N)Cc2ccc(OCCN)c(c2)-c2cc1ccc2OCCN [Compound 345],,2,,2.2,0.5,> 64
CCCCCCCCCCS(=O)(=O)N[C@@H](CCN)C(=O)N(C)[C@@H]1C(=O)N[C@@H](C)C(=O)N[C@H](C(=O)NCC#N)Cc2ccc(OCCN)c(c2)-c2cc1ccc2OCCN [Compound 346],0.031,0.063,8,0.7,,
CCCCCCCCCCNCCS(=O)(=O)N[C@@H](CCO)C(=O)N(C)[C@@H]1C(=O)N[C@@H](C)C(=O)N[C@H](C(=O)NCC#N)Cc2ccc(OCCN)c(c2)-c2cc1ccc2OCCN [Compound 348],,1,,0.8,0.055,> 64
CCCCCCCCCCNCCS(=O)(=O)N[C@@H](CCN)C(=O)N(C)[C@@H]1C(=O)N[C@@H](C)C(=O)N[C@H](C(=O)NCC#N)Cc2ccc(OCCN)c(c2)-c2cc1ccc2OCCN [Compound 350],0.016,0.063,4,1,,
CCCCCCCCCC(=O)N[C@H](CCC)C(=O)N[C@@H](CCN)C(=O)N(C)[C@@H]1C(=O)N[C@@H](C)C(=O)N[C@H](C(=O)NCC#N)Cc2ccc(OCCN)c(c2)-c2cc1ccc2OCCN [Compound 353],,0.016,,0.82,0.047,2
CCCCc1ccc(C(=O)N[C@H](CCC)C(=O)N[C@@H](CCN)C(=O)N(C)[C@@H]2C(=O)N[C@@H](C)C(=O)N[C@H](C(=O)NCC#N)Cc3ccc(OCCN)c(c3)-c3cc2ccc3OCCN)c(C)c1 [Compound 354],,0.063,,1.8,0.25,8
CCCCc1ccc(C(=O)N[C@@H](CCC)C(=O)N[C@@H](CCN)C(=O)N(C)[C@@H]2C(=O)N[C@@H](C)C(=O)N[C@H](C(=O)NCC#N)Cc3ccc(OCCN)c(c3)-c3cc2ccc3OCCN)c(C)c1 [Compound 355],,0.031,,1.1,0.13,4
CCCCCCCCCC(=O)N[C@@H](CO)C(=O)N[C@@H](CCN)C(=O)N(C)[C@@H]1C(=O)N[C@@H](C)C(=O)N[C@H](C(=O)NCC#N)Cc2ccc(OCCN)c(c2)-c2cc1ccc2OCCN [Compound 360],,0.31,,1.2,0.22,24
CCCCCCCCCC(=O)N[C@H](C)C(=O)NCC(=O)N[C@@H](CCN)C(=O)N(C)[C@@H]1C(=O)N[C@@H](C)C(=O)N[C@H](C(=O)NCC#N)Cc2ccc(OCCN)c(c2)-c2cc1ccc2OCCN [Compound 366],,0.38,,0.64,0.25,48
CCCCCCCCCC(=O)NCCC(=O)N[C@@H](CCN)C(=O)N(C)[C@@H]1C(=O)N[C@@H](C)C(=O)N[C@H](C(=O)NCC#N)Cc2ccc(OCCN)c(c2)-c2cc1ccc2OCCN [Compound 367],0.094,0.13,12,0.88,,
